Data as given in US20150315154A1 (COUNCIL OF SCIENTIFIC & INDUSTRIAL RESEARCH, priority 2012, published 2015).

What was measured:
[1] = MTT cell viability assay, normal RAW 264.7 cells; format: cell-based; settings: mouse, RAW 264.7 cells (non-cancerous mouse macrophage cells), after 24 and 48 h
B16F10 melanoma tumor = assay: Tumour growth inhibition assay, B16F10 melanoma in C57BL/6J mice; format: in vivo, mouse; settings: liposomes 1:1:1 with DOPC:Q16TG injected at tumour site on day 14, 16, 18, 21, 24
[2] = system: mRNA of Bcl-2, Bcl-xL, BAX, Caspase 3, Caspase 9 in A549 cells; assay: Semi-quantitative RT-PCR of apoptosis related genes in A549 cells; format: cell-based, human; settings: 25 μM/mL, 24 h, vs untreated cells
Procedure: FIG. 11 Describes reverse transcription-PCR analysis of (BAX, BAK, Caspase 3 & 9) and anti-apoptotic genes (Bcl-2, Bcl-xL & NF-kB) in A549 cells after 24 h treatment with histidinylated lipids. […] After 4 h the medium was discarded and 3 mL of DMEM medium (Sigma) containing 10% fetal bovine serum was added to each well and left for 24 h. After 24 h, mRNAs were extracted from all the cells, cDNA was synthesized by Reverse transcription reaction and amplified by Polymerase Chain Reaction and finally resolved in 2% agarose gel.
Next, toward obtaining mechanistic insights into the origin of the observed in-vitro apoptosis inducing properties of the presently disclosed histidinylated lipids, we conducted conventional RT-PCR (Reversed transcriptase polymerase chain reaction) assays. Effect of the histidinylated lipids on the mRNA expression of various apoptosis related genes were analyzed by RT-PCR. The human lung carcinoma (A549) cells as a reference, were treated with the liposomal formulations of the histidinylated lipid containing DOPC & helper lipid Q16TG (25 μM/mL) and untreated cells were used as control. After 24 h, the total mRNA was isolated by conventional method using trizol. RT-PCR products were resolved on a 2% agarose gel electrophoresis and visualized with ethidium bromide. Our findings are consistent with the apoptosis inducing abilities of the presently disclosed histidinylated lipids being mediated via inhibition of transcription of the anti-apoptotic Bcl-2 & Bcl-xL genes & via activation of pro-apoptotic BAX & BAK signal transduction pathways. […] 18S m-RNA was used as loading control for all these lanes (FIG. 11).
Semi-quantitative RT-PCR analysis was performed to measure the changes in gene expression of treated cells in contrast to the untreated cells. A549 cells (ATCC) were seeded at a density of 10^6 cells/well in a 6 well plate usually 18-24 h before transfection. […] Cells were washed with phosphate-buffered saline (PBS), pH 7.4 (1×100 μL) and the 1 mL liposomal solutions were added to the cells. […] Then the cells were incubated at a humidified atmosphere containing 5% CO2 at 37° C. for 24 h. After 24 h of transfection, lipoplex treated and untreated cells were lysed directly in 6-well plates with 1 mL of TRIzol® reagent (Invitrogen) following removal of media and washing with PBS (1 mL). The cells were dissolved in TRI Reagent and cell lysates were pipetted several times to clear the haziness. Cell lysates were taken in 1.5 mL centrifuge tubes, after 10 min 0.2 mL chloroform was added. The samples were covered tightly and shaken vigorously for 15 sec, incubated for 10 min at room temperature and centrifuged at 14,000×g for 15 min at 4° C. Following centrifugation, the mixture separates into a lower red phenol-chloroform phase, interphase and the colourless upper aqueous phase. RNA remains exclusively in the aqueous phase whereas DNA and proteins are in the interphase and organic phase. Aqueous phase was transferred in to a fresh tube; 0.8 mL of isopropanol was added and mixed with pipette, kept for 15 min at −20° C. and centrifuged at 20,000 g for 20 min at 4° C. The supernatant was removed and the RNA pellet was washed with 500 μL cold 75% ethanol and centrifuged at 20,000 g for 10 min at 4° C. Ethanol was aspirated out and the pellet air-dried by inverting the tube. Finally the RNA pellet was dissolved in 15 μL of DEPC treated water, the ODs measured at 260 and 280 nm and the concentrations and purities of RNAs were calculated.

[3] = system: A549 cells (human lung carcinoma cells); assay: cells; settings: A549, 24 h, read-out: cell viability
Text: (§4) The absorption obtained with reduced formazan with cells in the absence of lipids was taken to be 100. The assay was done after 24 (A) and 48 (B) hrs of the treatment.
(§5) The yellow tetrazolium salt (MTT) is reduced by mitochondrial dehydrogenase enzyme from metabolically active cells to form insoluble purple formazan crystals, which are solubilized by the addition of a mixture of DMSO & MeOH. The color can then be quantified by spectrophotometric method. For each cell type a linear relationship between cell number and absorbance is established, enabling accurate, straightforward quantification of changes in proliferation.
(§6) Cells were seeded at a density of 10000 (for B16F10, A549, MCF-7 & CHO) Or 15000 (for Raw264.7) per well in a 96-well plate for 18-24 h before the treatment. Cells were incubated with the liposomes of the presently described histidinylated cationic amphiphiles in the concentration range 40-16 μmol/mL in serum free medium. Immediately before the treatment, cells plated in the 96-well plate were washed with PBS (2×100 μL). After 4 h of incubation, the medium was replaced with fresh complete medium containing 10% FBS. The 10 μl of freshly prepared MTT solution in PBS (5 mg/mL) was added to each well of the plate after 24 or 48 h. The yellow tetrazolium salt (MTT) was reduced by mitochondrial dehydrogenase enzyme from metabolically active cells to form insoluble purple formazan crystals, which are solubilized by the addition of a mixture of DMSO & MeOH. The intensities of color were then quantified by spectrophotometric means. For each cell type a linear relationship between cell number and absorbance was established, enabling accurate, straightforward quantification of changes in proliferation.

in vitro = settings: African green monkey, COS-1 cells (non-cancerous)
Text: as §4, §5, §6

[4] = system: non-cancerous healthy COS-1 cells; settings: normal COS-1 cells; after 24 and 48 h
Text: as §4, §5, §6

[5] = system: CHO cells (Chinese hamstar ovarian cancer cells); assay: MTT cell viability assay, CHO cells; format: cell-based, Chinese hamster; settings: CHO cell line; after 24 h as well as after 48 h
[6] = system: B16F10 cells (mouse melanoma); assay: FITC-Annexin V / PI flow cytometry apoptosis assay, B16F10 cells; format: cell-based; settings: 25 μM/mL, 1:1:1 lipid:DOPC:Q16TG, 24 h
Text: (§1) Significant increase of both FITC (fluorescence isothio cyanate) and PE (phycoerythrin) signal in histidinylated lipid treated B16F10 cells confirm apoptosis inducing property of these lipids after 24 hrs. In a flow cytometric quadrant (FITC vs PE), the lower left=(LL) panel represents normal cells and lower right (LR) panel represents early apoptotic cells which increase FITC signal only. Whereas upper right (UR) panel represents late apoptotic cells which increases both FITC and PE signaling and upper left (UL) panel represents necrotic cell only which increases PE signal only. […]
(§2) To quantify apoptotic cell death, we studied the in vitro apoptosis induction efficacy of the presently disclosed histidinylated cationic amphiphiles in mouse melanoma (B16F10) and human lung carcinoma (A549) as model malignant cells by flow cytometry using the FITC-Annexin V Apoptosis Detection Kit (Sigma). […]
(§3) B16F10 & A549 cells were treated with all four histidinylated lipids and liposomal formulation of hydrophobic anti-cancer drug dexamethasone containing DOPC and the helper lipid Q16TG (in 1:1:1 mole ratio of histidinylated lipid:DOPC:Q16TG, 25 μM/mL). […] After 24 h of treatment, cells were stained with annexin V and PI (according to manufacturer protocol, Sigma) and analysed in a flow cytometer (BD FacsCanto II). […]

[7] = system: A549 cells (human lung carcinoma); assay: FITC-Annexin V / PI flow cytometry apoptosis assay, A549 cells; format: cell-based; settings: 25 μM/mL, 1:1:1 lipid:DOPC:Q16TG, 24 h
Text: as §1, with “FITC” for “FITC (fluorescence isothio cyanate)”, “PE” for “PE (phycoerythrin)”, “A549” for “B16F10”, “inducibility” for “inducing”, “left (LL)” for “left=(LL)”
as §2, §3

SMILES | viability [1] | tumor growth inhibition (B16F10 melanoma tumor) | Bcl-2 mRNA level [2] | Bcl-xL mRNA level [2] | Caspase 3 expression [2] | Caspase 9 expression [2] | expression of pro-apoptotic gene BAX [2] | viability at 40 µM [3] | viability (in vitro) | cell viability [4] | cytotoxicity [5] | apoptosis induction (annexin V / PI) [6] | apoptosis induction (annexin V / PI) [7]
CCCCCCCCCCCCCCCCCCOC(=O)C[C@H](NC(=O)[C@@H](N)Cc1c[nH]cn1)C(=O)OCCCCCCCCCCCCCCCCCC | > 80% | moderate tumour growth inhibition | did not show significant down regulation | did not show significant down regulation | up regulation | up regulation | up regulation | 20 to 40% | ~70% | – | – | – | –
CCCCCCCCCCCCCCCCCCOC(=O)CC[C@@H](NC(=O)[C@@H](N)Cc1ncc[nH]1)C(=O)OCCCCCCCCCCCCCCCCCC.Cl.Cl [HE-18, 2-((S)-2-ammonio-3-((R)-1,5-bis(octaadecyloxy)-1,5-dioxopentan-2-ylamino)-3-oxopropyl)-1H-imidazol-3-iumchloride] | – | moderate tumour growth inhibition | did not show significant down regulation | did not show significant down regulation | up regulation | up regulation | up regulation | – | – | ~70% | most potent cytotoxicity | – | –
CCCCCCCCCCCCCCCCOC(=O)C[C@H](NC(=O)[C@@H](N)Cc1c[nH]cn1)C(=O)OCCCCCCCCCCCCCCCC | > 80% | highest tumor growth inhibition | significantly decreased mRNA levels | significantly decreased mRNA levels | up regulation | up regulation | up regulation | 20 to 40% | ~70% | – | most potent cytotoxicity | enhanced apoptosis | enhanced apoptosis
CCCCCCCCCCCCCCCCOC(=O)CC[C@H](NC(=O)[C@@H](N)Cc1c[nH]cn1)C(=O)OCCCCCCCCCCCCCCCC | > 80% | highest tumor growth inhibition | significantly decreased mRNA levels | significantly decreased mRNA levels | up regulation | up regulation | up regulation | 20 to 40% | ~70% | – | most potent cytotoxicity | enhanced apoptosis | enhanced apoptosis
